Assay [1] deals with CK1α (Homo sapiens, UniProt P48729). Put plainly: CK1α inhibition IC50. Type of assay: biochemical.
Assay [2] addresses CK1δ (Homo sapiens, UniProt P48730). Put plainly: CK1δ inhibition IC50. Type of assay: biochemical.
The test system of assay [3] is DUX4. Put plainly: high-content immunocytochemistry assay of endogenous DUX4 expression in differentiating primary FSHD myotubes. Type of assay: cell-based, human. The following applies: for EC50: Homo sapiens, Myotube. The source says:
A quantitative assay readout was developed based on script-based image analysis. […] To analyse the images, an automated script was developed, enabling the detection of nuclei, myotube borders and DUX4 signals, with the script also detecting artefacts to reduce false positive signals. The script enabled multiple validated readouts including the number of DUX4 positive nuclei and nuclei clusters, the fusion index, myotube area, myotube width and myotube skeleton length (see FIG. 2). Additionally, the total nuclei count was included as a measure of cell loss or compound toxicity.
A compound library containing approximately 5000 annotated compounds was screened in the high-content assay. For this purpose, primary myoblasts were seeded in 384 well plates after which the growth medium was replaced with differentiation medium. After 3 days of differentiation, cells were treated with library compounds (in duplicate on different screening plates) for 15 h, after which they were fixed and stained with antibodies against DUX4, antibodies against myosin heavy chain (MHC), and with DAPI (4′,6-diamidino-2-phenylindole). Script-based analysis provided readouts for DUX4 expression (count of DUX4-positive nuclei or DUX4 intensity) and for potential toxicity (fusion index and nuclei count).
Compounds were incubated with primary FSHD cells for 15 hours, as indicated by the arrow in FIG. 4A.
Compounds are administered either 15 h before fixation, resembling the original screening protocol, or 72 h before fixation (grey arrow). In the latter case, compounds are present during the whole differentiation process.

The target of assay [4] is p38α (Homo sapiens, UniProt Q16539). Put plainly: p38α inhibition IC50. Type of assay: biochemical.
For assay [5], the target named is CK1ε (Homo sapiens, UniProt P49674). Put plainly: CK1ε inhibition IC50. Type of assay: biochemical. To be noted: read-out: CK1 e IC50.
Where [6] appears, read: 72 h, Table 4, 72 h treatment protocol, read-out: DUX4 EC50.
Where [7] appears, read: 72 h, Table 6, 72 h treatment protocol, read-out: DUX4 EC50.
Setting [8] is: Table 7, p38 compounds, read-out: IC50 CK1a.

Each structure is given as a SMILES string. Like-named read-outs stand apart in the source and are kept apart here.

CK1δ, sequence (P48730 whole entry): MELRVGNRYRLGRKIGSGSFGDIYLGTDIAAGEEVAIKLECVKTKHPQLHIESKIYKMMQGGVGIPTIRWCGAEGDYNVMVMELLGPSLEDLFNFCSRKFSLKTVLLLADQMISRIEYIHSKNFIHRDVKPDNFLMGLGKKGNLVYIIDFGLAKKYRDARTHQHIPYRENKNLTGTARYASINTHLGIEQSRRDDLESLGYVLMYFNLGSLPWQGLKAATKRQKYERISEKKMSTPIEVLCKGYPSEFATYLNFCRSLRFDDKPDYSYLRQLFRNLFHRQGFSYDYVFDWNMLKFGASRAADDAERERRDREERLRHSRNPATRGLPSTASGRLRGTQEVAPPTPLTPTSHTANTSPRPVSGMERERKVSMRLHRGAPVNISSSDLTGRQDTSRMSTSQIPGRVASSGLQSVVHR
CK1α, sequence (P48729 whole entry): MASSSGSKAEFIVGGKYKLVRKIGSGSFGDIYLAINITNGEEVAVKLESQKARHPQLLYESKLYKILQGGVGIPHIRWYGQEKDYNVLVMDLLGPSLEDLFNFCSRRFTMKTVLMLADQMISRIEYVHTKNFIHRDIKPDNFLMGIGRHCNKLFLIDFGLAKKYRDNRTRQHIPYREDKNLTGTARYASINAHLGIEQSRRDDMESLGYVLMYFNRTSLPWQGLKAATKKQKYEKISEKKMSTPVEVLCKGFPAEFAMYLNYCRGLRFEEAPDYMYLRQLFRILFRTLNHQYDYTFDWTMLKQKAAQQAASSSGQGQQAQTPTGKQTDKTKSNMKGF
p38α, sequence (Q16539 whole entry): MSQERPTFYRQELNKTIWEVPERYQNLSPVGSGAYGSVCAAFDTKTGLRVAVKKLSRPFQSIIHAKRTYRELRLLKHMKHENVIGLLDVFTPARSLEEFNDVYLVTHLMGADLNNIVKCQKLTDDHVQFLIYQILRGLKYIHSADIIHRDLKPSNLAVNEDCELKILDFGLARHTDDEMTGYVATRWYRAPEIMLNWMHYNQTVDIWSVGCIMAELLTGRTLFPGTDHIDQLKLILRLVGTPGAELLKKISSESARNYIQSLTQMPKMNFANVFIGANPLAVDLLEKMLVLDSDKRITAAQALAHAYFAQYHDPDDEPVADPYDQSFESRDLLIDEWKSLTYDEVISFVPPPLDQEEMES
CK1ε, sequence (P49674 whole entry): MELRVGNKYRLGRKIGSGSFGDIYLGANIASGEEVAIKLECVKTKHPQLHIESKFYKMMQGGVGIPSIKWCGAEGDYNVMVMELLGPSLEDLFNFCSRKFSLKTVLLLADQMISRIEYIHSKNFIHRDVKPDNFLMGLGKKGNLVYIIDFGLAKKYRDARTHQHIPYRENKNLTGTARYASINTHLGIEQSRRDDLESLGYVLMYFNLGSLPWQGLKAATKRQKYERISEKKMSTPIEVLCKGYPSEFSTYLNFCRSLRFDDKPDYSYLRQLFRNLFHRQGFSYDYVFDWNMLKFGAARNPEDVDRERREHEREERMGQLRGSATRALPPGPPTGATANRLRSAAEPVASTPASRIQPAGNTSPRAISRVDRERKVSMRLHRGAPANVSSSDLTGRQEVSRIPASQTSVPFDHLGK

The term IC50 denotes the concentration that gives 50% inhibition. What is called EC50 is the concentration needed to bring the measured effect to its halfway point. `Cc1cc(-c2cn(C)nc2-c2ccc(F)cc2)ccn1` [Nr. 19]: the IC50 was found to be 4020 nM in assay [1] (Table 4, read-out: CK1 a IC50); 4020 nM in assay [1] (Table 6, read-out: IC50 CK1α); 80.7 nM in assay [2] (Table 4, read-out: CK1 d IC50); 81 nM in assay [2] (Table 6, read-out: IC50 CK1δ); 449 nM in assay [4] (Table 4, read-out: p38a IC50); 449 nM in assay [4] (Table 6, read-out: IC50 p38α). The EC50 in assay [3] (setting [6]) and in assay [3] (setting [7]) was 4900 nM throughout.

As to `Fc1ccc(-c2nn(CC(F)(F)F)cc2-c2ccnc3[nH]ccc23)cc1` [Nr. 20], the IC50 came to 186 nM in assay [1] (Table 4, read-out: CK1 a IC50); 186 nM in assay [1] (Table 6, read-out: IC50 CK1α); 55.5 nM in assay [2] (Table 4, read-out: CK1 d IC50); 55 nM in assay [2] (Table 6, read-out: IC50 CK1δ); 50.3 nM in assay [4] (Table 4, read-out: p38a IC50); 50 nM in assay [4] (Table 6, read-out: IC50 p38α). The EC50 in assay [3] (setting [6]) and in assay [3] (setting [7]) was 2200 nM in each case.

As for `Fc1ccc(-c2nc3ccc(N4CCNC5(CC5)C4)nn3c2-c2ccncc2)cc1` [Nr. 21], the IC50 was determined as 61.4 nM in assay [1] (Table 4, read-out: CK1 a IC50); 61 nM in assay [1] (Table 6, read-out: IC50 CK1α); 58.5 nM in assay [2] (Table 4, read-out: CK1 d IC50); 58 nM in assay [2] (Table 6, read-out: IC50 CK1δ); 28.9 nM in assay [4] (Table 4, read-out: p38a IC50); 29 nM in assay [4] (Table 6, read-out: IC50 p38α). Besides, the EC50 in assay [3] (setting [6]) and in assay [3] (setting [7]) was 100 nM each time.

For `Fc1ccc(-c2nc3ccc(N4CCNCC4)nn3c2-c2ccnnc2)cc1` [Nr. 22], the IC50 in assay [1] (Table 4, read-out: CK1 a IC50) amounted to 194 nM; in assay [1] (Table 6, read-out: IC50 CK1α), 194 nM; in assay [2] (Table 4, read-out: CK1 d IC50) it was 57.7 nM; in assay [2] (Table 6, read-out: IC50 CK1δ), 58 nM; in assay [4] (Table 4, read-out: p38a IC50), 411 nM; in assay [4] (Table 6, read-out: IC50 p38α), 411 nM. Moreover, the EC50 in assay [3] (setting [6]) and in assay [3] (setting [7]) was 1100 nM each time.

For the molecule `Fc1ccc(-c2nc3ccc(N4CCOCC4)nn3c2-c2ccncc2)cc1` [Nr. 23], the IC50 in assay [1] (Table 4, read-out: CK1 a IC50) was above 10000 nM; in assay [1] (Table 6, read-out: IC50 CK1α), above 10000 nM; in assay [2] (Table 4, read-out: CK1 d IC50), 2090 nM; in assay [2] (Table 6, read-out: IC50 CK1δ) it was 2090 nM; in assay [4] (Table 4, read-out: p38a IC50) it was 1250 nM; in assay [4] (Table 6, read-out: IC50 p38α), 1250 nM. Besides, the concentration giving a half-maximal response (EC50) in assay [3] (setting [6]) and in assay [3] (setting [7]) was 2400 nM throughout.

Regarding `Fc1ccc(-c2nc3sc(N4CCNCC4)nn3c2-c2ccncc2)cc1` [Nr. 24], the IC50 in assay [1] (Table 4, read-out: CK1 a IC50) turned out to be 331 nM; in assay [1] (Table 6, read-out: IC50 CK1α), 331 nM; in assay [2] (Table 4, read-out: CK1 d IC50), 55.7 nM; in assay [2] (Table 6, read-out: IC50 CK1δ) it was 58 nM; in assay [4] (Table 4, read-out: p38a IC50), 21.7 nM; in assay [4] (Table 6, read-out: IC50 p38α), 22 nM. In addition, the EC50 in assay [3] (setting [6]) and in assay [3] (setting [7]) was 480 nM throughout.

Consider `Nc1nccc(-c2c(-c3ccc(F)cc3)ncn2C2CCCCC2)n1` [PF-670462, reference compound], for which the “effect on DUX4” value in assay [3] (72 h treatment) is reported as “repress DUX4”. Besides, the half-maximal effective concentration (EC50) in assay [3] (setting [6]) and in assay [3] (setting [7]) was 760 nM in each case. The IC50 in assay [4] (Table 3, read-out: p38a IC50) was 32.4 nM; in assay [4] (Table 4, read-out: p38a IC50), 32.4 nM.

Turning to `Nc1nccc(-c2c(-c3ccc(F)cc3)ncn2C2CCN(Cc3ccon3)CC2)n1` [PF-5006739, reference compound], the IC50 came to 19.8 nM in assay [2] (Table 3, read-out: CK1 d IC50); 19.8 nM in assay [2] (Table 4, read-out: CK1 d IC50); 26.8 nM in assay [5] (Table 3); 26.8 nM in assay [5] (Table 4); 74.3 nM in assay [4] (Table 3, read-out: p38a IC50); 74.3 nM in assay [4] (Table 4, read-out: p38a IC50). Moreover, the EC50 in assay [3] (setting [6]) and in assay [3] (setting [7]) was 620 nM each time.

On to `CNC(=O)c1ccc(C)c(-n2c(C)cc(OCc3ccc(F)cc3F)c(Br)c2=O)c1` [PH797804, reference compound], for which the IC50 in assay [1] (setting [8]) was above 10000 nM.

With `Cn1c(=O)c(Oc2ccc(F)cc2F)cc2cnc(NC(CCO)CCO)nc21` [Pamapimod, reference compound], the IC50 in assay [1] (setting [8]) is above 10000 nM.

As for `OCCC#Cc1nc(-c2ccc(F)cc2)c(-c2ccncc2)n1CCCc1ccccc1` [RWJ 67657, reference compound], the IC50 in assay [1] (Table 4, read-out: CK1 a IC50) is 1830 nM; in assay [1] (Table 6, read-out: IC50 CK1α), 1830 nM; in assay [2] (Table 4, read-out: CK1 d IC50), 115 nM; in assay [2] (Table 6, read-out: IC50 CK1δ) it was 115 nM; in assay [4] (Table 4, read-out: p38a IC50), 15.9 nM; in assay [4] (Table 6, read-out: IC50 p38α), 16 nM. Besides, the EC50 in assay [3] (setting [6]) and in assay [3] (setting [7]) was 780 nM throughout.

For the molecule `C[C@@H]1CN(Cc2ccc(F)cc2)[C@@H](C)CN1C(=O)c1cc2c(C(=O)C(=O)N(C)C)cn(C)c2cc1Cl` [SCIO469, reference compound], in assay [1] (setting [8]), the IC50 is above 10000 nM.

Regarding `Fc1cccc(-n2cnc3c(NCc4nc5ccc(F)c(F)c5[nH]4)nc(N4CCOCC4)nc32)c1` [SR-3029, reference compound], the EC50 in assay [3] (15 h, read-out: DUX4 EC50) was 50 nM; in assay [3] (15 h, read-out: EC50 for DUX4 repression), 50 to 120 nM. The IC50 in assay [4] (Table 3, read-out: p38a IC50) was above 1000 nM.

For `NC(=O)c1ccc(N(C(N)=O)c2c(F)cccc2F)nc1-c1ccc(F)cc1F` [VX702, 2-(2,4-difluorophenyl)-6-(1-(2,6-difluoropheny)ureido)nicotinamide, reference compound], in assay [1] (setting [8]), the IC50 was above 10000 nM.

Consider `Cc1ccc(-n2nc(C(C)(C)C)cc2NC(=O)NCc2cc(F)ccc2Oc2ccc3c(cnn3CCO)c2)cc1` [pexmetinib, reference compound], for which the IC50 in assay [1] (setting [8]) is above 10000 nM.

The values are drawn from patent US20220226340A1, “CASEIN KINASE 1 INHIBITORS FOR USE IN THE TREATMENT OF DISEASES RELATED TO DUX4 EXPRESSION SUCH AS MUSCULAR DYSTROPHY AND CANCER” (Facio Intellectual Property B.V., priority 2019, published 2022).
